PubChem BioAssay AID1919004 (Molecular Pharmacology Branch, DTP, NCI, 2023)
Several values for one entry are separate records, joined by “and”; a condition that tells them apart may be missing. Equal values may be shown once.

Tested on: 883617-216-R-J1-PDC complex spheroids, growth, % test/control
Experiment: Anticancer human tumor 883617-216-R-J1-PDC patient-derived bladder carcinoma cell line growth inhibition [AhR]
Conditions: for viability, T/C: stronger effect = lower value
Source text: Multicellular complex tumor spheroid response to aryl hydrocarbon receptor antagonists in combination with a variety of drugs and investigational agents in selected tumor cell lines
The current study was undertaken to assess response to aryl hydrocarbon receptor antagonists in combination with standard-of-care drugs and investigational agents in solid tumor complex spheroid models. Complex spheroids include a stromal component modeled by human endothelial cells (HUVEC) and fibroblasts modeled by human mesenchymal stem cells (MSCs). The concentration ranges selected for each drug and investigational agent were based upon clinically achievable concentrations if the clinical Cmax of the agent was known.
Compounds. The drugs and investigational agents: BAY 2416964 (NSC825713), GNF351 (NSC835774), CH-223191 (NSC835775), CPI-455 (NSC825282), aza-TdCyd (NSC777586), decitabine (NSC127716), belinostat (NSC758774), entinostat (NSC756642), pevonedistat (NSC761192), tazemetostat (NSC777109), talazoparib (NSC765396), olaparib (NSC753686), selinexor (NSC780203), nedisertib (M3814, NSC802822), bortezomib (NSC756655), venetoclax (NSC766270), doxorubicin (NSC123127), elimusertib (BAY189344, NSC800525), ceralasertib (AZD6738, NSC777638), TAK-243 (NSC785004), alisertib (NSC759677), etoposide (NSC141540), topotecan (NSC609699), eribulin (NSC707389), gemcitabine (NSC613327), carboplatin (NSC241240), cisplatin (NSC119875), and SN-38 (NSC673596) were obtained from the National Cancer Institute (NCI) Developmental Therapeutics Program Chemical Repository (32). The FDA-approved anticancer drug set is available from the Developmental Therapeutics Program at https://dtp.cancer.gov/organization/dscb/obtaining/available plates.htm. […] The stock solutions were prepared in dimethyl sulfoxide (DMSO, Sigma-Aldrich, St. Louis, MO, cat. D2650), except for the platinum compounds which were prepared in saline (Quality Biological, Gaithersburg, MD, cat. 114-055-101), at 800-fold the tested concentration and stored at -70 degrees C prior to their use. All drugs and investigational agents were tested over a range starting from a high concentration at or near the clinical Cmax and decreasing in half-log increments. If the clinical Cmax for an agent had not been determined, the highest concentration tested was 10 microM (Table 1).
Cell Culture. All cells were maintained in an incubator at 37 degrees C and 5% CO2 with 95% humidity. The PDC lines were cultured according to standard operating procedures established by the NCI PDMR (https://pdmr.cancer.gov). Briefly, all PDCs were thawed and cultured in Matrigel-coated flasks prepared with a working solution of 1X Ham's F-12 nutrient mix, without supplementation (Invitrogen, Waltham, MA, cat. 11765054), 100 U/mL penicillin-streptomycin (Invitrogen, cat. 15140122), and 2.5% Matrigel (Corning Inc., Corning, NY, cat. 354248) for the first three passages. All PDCs were cultured in complete DMEM/F-12 media containing advanced DMEM/F-12 (Invitrogen, cat. 12634028), 4.9% defined fetal bovine serum, heat inactivated (HyClone Laboratories Inc., Logan, UT, cat. SH30070.03HI), 389 ng/mL hydrocortisone (Sigma-Aldrich, cat. H4001), 9.7 ng/mL human EGF recombinant protein (Invitrogen, cat. PHG0313), 23.4 microg/mL adenine (Sigma-Aldrich, cat. A2786), 97.3 U/mL penicillin-streptomycin (Invitrogen, cat. 15140122), 1.9 mM L-glutamine (Invitrogen, cat. 25030081), and 9.7 microM Y-27632 dihydrochloride (Tocris Bioscience, Bristol, United Kingdom, cat. 1254). The PDCs were cultured in complete DMEM/F12 media without 10 microM Y-27632 dihydrochloride for at least two passages prior to the screen. The established cell lines NCI-H1341 and […] were cultured in DMEM/F-12, HEPES (Invitrogen, cat. 11330032), 5% defined fetal bovine serum (HyClone Laboratories Inc., cat. SH30070.03), ITS premix universal culture supplement [insulin (5 microg/mL), transferrin (5 microg/mL), and selenious acid (5 ng/mL)] […]

[1] = curve of first compound, second compound 0.1 µM
[2] = curve of first compound, second compound 0.316 µM
[3] = curve of first compound, second compound 1 µM
[4] = curve of first compound, second compound 3.16 µM
[5] = curve of first compound, second compound 10 µM
[6] = second compound 0.1 µM, first compound 0.0316 µM
[7] = second compound 0.1 µM, first compound 0.1 µM
[8] = second compound 0.1 µM, first compound 0.316 µM
[9] = second compound 0.1 µM, first compound 1 µM
[10] = second compound 0.1 µM, first compound 3.16 µM
[11] = second compound 0.1 µM, first compound 10 µM
[12] = second compound 0.316 µM, first compound 0.0316 µM
[13] = second compound 0.316 µM, first compound 0.1 µM
[14] = second compound 0.316 µM, first compound 0.316 µM
[15] = second compound 0.316 µM, first compound 1 µM
[16] = second compound 0.316 µM, first compound 3.16 µM
[17] = second compound 0.316 µM, first compound 10 µM
[18] = second compound 1 µM, first compound 0.0316 µM
[19] = second compound 1 µM, first compound 0.1 µM
[20] = second compound 1 µM, first compound 0.316 µM
[21] = second compound 1 µM, first compound 1 µM
[22] = second compound 1 µM, first compound 3.16 µM
[23] = second compound 1 µM, first compound 10 µM
[24] = second compound 3.16 µM, first compound 0.0316 µM
[25] = second compound 3.16 µM, first compound 0.1 µM
[26] = second compound 3.16 µM, first compound 0.316 µM
[27] = second compound 3.16 µM, first compound 1 µM
[28] = second compound 3.16 µM, first compound 3.16 µM
[29] = second compound 3.16 µM, first compound 10 µM
[30] = second compound 10 µM, first compound 0.0316 µM
[31] = second compound 10 µM, first compound 0.1 µM
[32] = second compound 10 µM, first compound 0.316 µM
[33] = second compound 10 µM, first compound 1 µM
[34] = second compound 10 µM, first compound 3.16 µM
[35] = second compound 10 µM, first compound 10 µM
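Note: exposure lasted 7 days after dosing on day 3 of spheroid growth.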

CC(C)CC(NC(=O)C(Cc1ccccc1)NC(=O)c1cnccn1)B(O)O (configuration not stated)
viability, T/C (compound 0.000949 µM): 97.1% and 98.4% and 72.1%
viability, T/C (compound 0.003 µM): 105% and 94.3% and 10.1%
viability, T/C (compound 0.03 µM): 0.36% and 0.18% and 1.33%
viability, T/C (compound 0.0949 µM): 0.25% and 0.13% and 2.71%
viability, T/C (compound 0.3 µM): 0.36% and 0.19% and 3.19%
IC50 (curve of compound): 7.45 nM and 7.16 nM and 1.43 nM

CC1COCCN1c1cc(C2(S(C)(=N)=O)CC2)nc(-c2ccnc3[nH]ccc23)n1 (configuration not stated) + Cc1ccccc1N=Nc1ccc(NC(=O)c2ccnn2C)c(C)c1
IC50 [1]: > 10000 nM
IC50 [2]: > 10000 nM
IC50 [3]: > 10000 nM
IC50 [4]: > 10000 nM
IC50 [5]: > 10000 nM
viability, T/C [6]: 97.9%
viability, T/C [7]: 97%
viability, T/C [8]: 88%
viability, T/C [9]: 84.9%
viability, T/C [10]: 70.9%
viability, T/C [11]: 54.6%
viability, T/C [12]: 90.5%
viability, T/C [13]: 93.6%
viability, T/C [14]: 81.2%
viability, T/C [15]: 89.9%
viability, T/C [16]: 82%
viability, T/C [17]: 55.4%
viability, T/C [18]: 87.7%
viability, T/C [19]: 90.9%
viability, T/C [20]: 82.4%
viability, T/C [21]: 84.8%
viability, T/C [22]: 77.1%
viability, T/C [23]: 54.8%
viability, T/C [24]: 86.5%
viability, T/C [25]: 77.6%
viability, T/C [26]: 75%
viability, T/C [27]: 75%
viability, T/C [28]: 61.5%
viability, T/C [29]: 58.8%
viability, T/C [30]: 75.7%
viability, T/C [31]: 81.5%
viability, T/C [32]: 82%
viability, T/C [33]: 77.3%
viability, T/C [34]: 73.5%
viability, T/C [35]: 57.1%

CC(C)CC(NC(=O)C(Cc1ccccc1)NC(=O)c1cnccn1)B(O)O (configuration not stated) + Cc1ccccc1N=Nc1ccc(NC(=O)c2ccnn2C)c(C)c1
IC50 [1]: 7.48 nM
IC50 [2]: 7.89 nM
IC50 [3]: 7.56 nM
IC50 [4]: 7.93 nM
IC50 [5]: 9.89 nM
viability, T/C (second compound 0.1 µM, first compound 0.000949 µM): 85.9%
viability, T/C (second compound 0.1 µM, first compound 0.003 µM): 97.5%
viability, T/C (second compound 0.1 µM, first compound 0.00949 µM): 39.1%
viability, T/C (second compound 0.1 µM, first compound 0.03 µM): 0.08%
viability, T/C (second compound 0.1 µM, first compound 0.0949 µM): 0.03%
viability, T/C (second compound 0.1 µM, first compound 0.3 µM): 0.11%
viability, T/C (second compound 0.316 µM, first compound 0.000949 µM): 90.5%
viability, T/C (second compound 0.316 µM, first compound 0.003 µM): 92.7%
viability, T/C (second compound 0.316 µM, first compound 0.00949 µM): 42.1%
viability, T/C (second compound 0.316 µM, first compound 0.03 µM): 0.06%
viability, T/C (second compound 0.316 µM, first compound 0.0949 µM): 0.05%
viability, T/C (second compound 0.316 µM, first compound 0.3 µM): 0.11%
viability, T/C (second compound 1 µM, first compound 0.000949 µM): 84.8%
viability, T/C (second compound 1 µM, first compound 0.003 µM): 89.4%
viability, T/C (second compound 1 µM, first compound 0.00949 µM): 40.9%
viability, T/C (second compound 1 µM, first compound 0.03 µM): 0.08%
viability, T/C (second compound 1 µM, first compound 0.0949 µM): 0.03%
viability, T/C (second compound 1 µM, first compound 0.3 µM): 0.1%
viability, T/C (second compound 3.16 µM, first compound 0.000949 µM): 79.4%
viability, T/C (second compound 3.16 µM, first compound 0.003 µM): 88.2%
viability, T/C (second compound 3.16 µM, first compound 0.00949 µM): 43.8%
viability, T/C (second compound 3.16 µM, first compound 0.03 µM): 0.11%
viability, T/C (second compound 3.16 µM, first compound 0.0949 µM): 2.06%
viability, T/C (second compound 3.16 µM, first compound 0.3 µM): 0.76%
viability, T/C (second compound 10 µM, first compound 0.000949 µM): 78%
viability, T/C (second compound 10 µM, first compound 0.003 µM): 80.8%
viability, T/C (second compound 10 µM, first compound 0.00949 µM): 51.9%
viability, T/C (second compound 10 µM, first compound 0.03 µM): 0.17%
viability, T/C (second compound 10 µM, first compound 0.0949 µM): 0.62%
viability, T/C (second compound 10 µM, first compound 0.3 µM): 0.21%

CC1(C)CCC(CN2CCN(c3ccc(C(=O)NS(=O)(=O)c4ccc(NCC5CCOCC5)c([N+](=O)[O-])c4)c(Oc4cnc5[nH]ccc5c4)c3)CC2)=C(c2ccc(Cl)cc2)C1 + Cc1cncc(-c2nc(NCCc3c[nH]c4ccccc34)c3ncn(C(C)C)c3n2)c1
IC50 [1]: 6160 nM
IC50 [2]: 6290 nM
IC50 [3]: 5920 nM
IC50 [4]: 8250 nM
IC50 [5]: > 10000 nM
viability, T/C [6]: 85.7%
viability, T/C [7]: 88.8%
viability, T/C [8]: 90%
viability, T/C [9]: 78.6%
viability, T/C [10]: 80.4%
viability, T/C [11]: 28.5%
viability, T/C [12]: 97.3%
viability, T/C [13]: 99.2%
viability, T/C [14]: 94.2%
viability, T/C [15]: 88.5%
viability, T/C [16]: 82.2%
viability, T/C [17]: 29%
viability, T/C [18]: 86.5%
viability, T/C [19]: 89.7%
viability, T/C [20]: 87.7%
viability, T/C [21]: 84.5%
viability, T/C [22]: 82.5%
viability, T/C [23]: 23%
viability, T/C [24]: 99.1%
viability, T/C [25]: 108%
viability, T/C [26]: 115%
viability, T/C [27]: 97.2%
viability, T/C [28]: 106%
viability, T/C [29]: 38.9%
viability, T/C [30]: 49.4%
viability, T/C [31]: 52.6%
viability, T/C [32]: 57.1%
viability, T/C [33]: 61.4%
viability, T/C [34]: 72%
viability, T/C [35]: 37.3%

Nc1ccn(C2OC(CO)C(O)C2(F)F)c(=O)n1 (configuration not stated)
viability, T/C (compound 0.0316 µM): 28.9% and 105% and 26.2%
viability, T/C (compound 0.1 µM): 28.2% and 135% and 27.1%
viability, T/C (compound 0.316 µM): 32% and 64% and 25.9%
viability, T/C (compound 1 µM): 37% and 80.2% and 30.9%
viability, T/C (compound 3.16 µM): 40.3% and 118% and 35.9%
viability, T/C (compound 10 µM): 37.1% and 79.3% and 35.7%
